Measurements: publication PMC8959600 (eLife, 2022)
≈ marks a conversion by molar mass, not a printed value.

Tests used:
Shigella flexneri 2457T = experiment: Resazurin growth inhibition, dose response (IC50/IC90) in Müller Hinton medium; type: cell-based
Procedure: We developed a high-throughput screening (HTS) method to identify compounds that could inhibit the growth of Shigella flexneri 2457T in Müller Hinton medium (Sigma Aldrich, UK). We adapted a resazurin reduction protocol from Franzblau et al. as surrogate readout for bacterial viability because it provided a stable signal, a low interference level, and was cost effective ([Franzblau et al., 1998]). Prior to the day of experimentation, one colony was used to inoculate 50 mL Mueller Hinton medium, and the culture was incubated overnight at 37 °C. The next day, 500 μL of the bacterial culture were inoculated into 50 mL fresh Mueller Hinton medium and bacterial growth was measured periodically at 600 nm. When the culture reached OD = 0.4–0.6, the inoculum was diluted to 1 × 10^6 CFU/mL; this bacterial suspension was added to compound pre-dispensed plates for screening.
The assay was performed in 1536-well polystyrene assay plates (HiBase, μClear, Greiner Bio‐One) and used to screen ~1.7 million compounds from (a) GSK naïve chemical diversity, (b) GSK antibacterial programs, and (c) marketed antimicrobial agents. All commercially available chemicals were purchased from either Sigma Aldrich, UK, AK Scientific, or Fischer Chemicals. The GSK compound screening set was sub-selected from the 8 million compound GSK collection using the principles described by Harper and co-workers ([Harper et al., 2004]). The process to generate the structural filters to remove compounds bearing undesirable/reactive chemotypes and/or non-developable physicochemical properties has been described previously by [Chakravorty et al., 2018]. […]. The set of marketed antibacterial agents included most commercial antimicrobial agents.
For screening, plates were prepared by dispensing 50 nl of compound from master plates at 1 mM in each well using a LabCyte Echo system. The final assay volume was 5 μl and the final compound concentration was 10 µM. The 11th and 12th columns were growth controls containing 50 nL of DMSO. The 34th and 35th columns contained 50 nL of Moxifloxacin at 20 μM as negative growth controls. Five µl of bacterial inoculum was dispensed into compound pre-dispensed plates using a Multidrop Combi dispenser (Thermo Scientific). Plates were agitated for 10 s to ensure mixing and incubated at 37 °C overnight (16–17 hr). Following overnight culture, 2 µl resazurin solution (Resazurin tablets for milk testing, BDH) was added to each well and incubated at room temperature in the dark for 3 hr. Fluorescence intensity was measured using an Envision plate reader (PerkinElmer). […] Data were analysed using Base software and statistical cut-off analysis was used for ‘hit’ selection following a standard GSK protocol. To calculate the statistical cut-off, percentage growth inhibition was calculated per well according to the plate controls, these values were aggregated to calculate the robust mean and standard deviation (SD) of the distribution. The robust mean was calculated starting from the median and the MAD of the distribution with an iterative process that aimed to remove outliers. Once the mean and SD were calculated, all compounds above mean + 3 SD were selected as primary hits.
After the initial screen, we generated fresh samples of the primary compound hits and tested them in duplicate against S. flexneri 2457T at 10 μM to confirm activity. The confirmed hit list was narrowed by applying the following filters: a 30% cut-off value, absence of undesirable structural features (e.g. electrophiles, peroxides, and Michael acceptors) and reduced physicochemical risk (maximum five aromatic rings and PFI <8)([Leeson and Young, 2015]). […].

Salmonella = experiment: MIC by micro dilution, clinical Salmonella isolates from Vietnam; type: cell-based; conditions: 117 Salmonella from diarrhoeal cases in Vietnam; read-out: median MIC
Source text: Selected compounds, including Tebipenem, were profiled against a panel of […] clinical isolates of enteric pathogens comprised of Shigella (Vietnam and Kenya; n = 135), non-typhoidal Salmonella (Vietnam; n = 117), Campylobacter (Vietnam; n = 75), and various pathogenic E. coli species (Vietnam; n = 7) ([Butcher et al., 2014]). The antimicrobial susceptibility profile of these organisms is described in Supplementary file 1.
Compound screening and dose response assays have been described previously ([Van Voorhis et al., 2016]; [Wiegand et al., 2008]). Briefly, the selected bacteria were cultured on the Luria-Bertani agar overnight at 37 °C (Campylobacter isolates were grown in 2.5% Laked Horse Blood cation-adjusted Mueller Hinton medium (CAMHB, Sigma Aldrich) and incubated in microaerophilic conditions (10% CO2, 5% O2 and 85% N2) at 42 °C); colonies were added to sterile PBS to form 0.5 McFarland solutions. […] The activity of the chemical was recorded as being active (yes) or non-active (no) for each of the tested chemicals. A non-active result was recorded when there was no evidence of bacterial inhibition, and the culture area was indistinguishable from the negative control.
MICs were evaluated using the micro dilution assay in Müller Hinton broth using 1 mM chemical stock solutions, and a final concentration of 5 × 10^5 CFU/mL bacteria. […]

[1] = tested on: clinical isolates of Shigella (S. flexneri EG478, S. flexneri_01_0417, S. sonnei_02_1181); experiment: Time-kill curve assays; type: cell-based, Shigella spp.
Procedure: Time-kill curve assays were performed in 20 mL volume in 50 mL tubes by culturing 5 × 10^5 CFU/mL Shigella spp. in Müller Hinton broth in the presence of four antimicrobial concentrations in doubling dilutions ranging from 0.5xMIC to 4xMIC. Bacteria were grown with agitation at 200 rpm at 37 °C and monitored over a time-course of 24 hr (0, 2, 4, 6, 8, and 24 hr). For each concentration and time point, 100 μL of bacterial culture were diluted and used to inoculate Luria-Bertani agar plates that were incubated at 37 °C overnight. Next, bacterial colonies were enumerated.

S. flexneri 2457T [2] = type: in vivo; conditions: mice, 39 mg/kg Tebipenem freebase subcutaneously, 24 hr after intraperitoneal infection
S. flexneri 2457T [3] = experiment: Gnotobiotic piglet Shigella infection model, efficacy; type: in vivo; conditions: 6-day experiment
[4] = mice, Tebipenem PO 39 mg/kg, n = 3
[5] = paediatric population, Tebipenem-Pivoxil PO; ref Sato et al., 2008; cited from earlier work

C[C@@H](O)[C@H]1C(=O)N2C(C(=O)O)=C(SC3CN(C4=NCCS4)C3)[C@H](C)[C@H]12 [Tebipenem]
MIC (Shigella flexneri 2457T; 2457T, read-out: estimated MIC of S. flexneri 2457T): 0.39 µM | IC90 (Shigella flexneri 2457T; ATCC700930): 0.01 µg/mL (≈ 0.0261 µM) | MIC (Salmonella): < 0.1 µM | time kill, antibacterial activity ([1]; higher concentrations (2–4 x MIC), 24 hr): protracted antibacterial activity | time kill, population behaviour ([1]; lower concentrations (0.5–1 x MIC), after 6 hr exposure, all three isolates): Population rebounds occurred | reduction of organisms in the small intestine (S. flexneri 2457T [2]): 1.2 log | weight gain vs vehicle-treated piglets (S. flexneri 2457T [3]): not statistically significant | bioavailability [4]: 4 ± 1% | AUC0-tlast [5]: 16000 ng·h/mL | Cmax [5]: 7500 ng/mL
